“And” between values parts separate entries of the source, which are not always exact repeats. Equal entries are not always repeated. “Also recorded” adds a separate entry of the source.
Key:
Format in all cases: in vivo, mouse
hexb^−/− mice [1] = experiment: Survival of Sandhoff (hexb−/−) mice given 4-PBA in drinking water, Mantel-Cox analysis
Description: Mouse work was conducted under the animal utilization protocol (AUP) in accordance with the Ontario Animals for Research Act specifications and the Animal Research Ethics Board (AREB) guidelines. The Sandhoff model mice (hexb^−/− on a C57BL/6 background) were generously donated by Dr. R. Gravel (University of Calgary, Canada) and have been previously characterized.
(§1) Protocol one: Two groups of hexb^−/− mice (n=10 per group); One group was administered 4-PBA (Scandinavian Formulas, Inc.) 4 mg/ml (0.4% w/v) in drinking water at 40 d of age. Body weights and vitals were monitored, and motor neuromuscular function were assessed every other day starting at 50 d of age until end point.
(§2) To assess the efficacy of chemical chaperone 4-PBA in reducing ER stress, hexb^−/− mice were administered 4-PBA in their drinking water at 40 d of age and underwent behavioral testing beginning at 7 weeks of age. Utilizing several behavioral tests such as wire hang, body weight, and righting response, measures of degeneration of cerebellar and motor neuromuscular functions were collected (FIG. 14). […] Lastly, an analysis of survivability was conducted using a Mantel-Cox test (FIG. 14 D). […] Overall, an increase of 16 days was noted, with 127 days as the median survival age for untreated hexb^−/− mice and 143 days for 4-PBA treated hexb^−/− mice.

hexb^−/− mice [2] = experiment: Wire hang test in hexb−/− mice; settings: hexb−/− mice treated with 4-PBA vs untreated
Description: as §1, §2

hexb^−/− mice [3] = experiment: Righting reflex / righting response in hexb−/− mice
Description: as §1, §2

[4] = Body mass of hexb−/− mice; settings: hexb−/− mice with 4-PBA compared to wildtype
Description: as §1, §2

[5] = test system: phosphorylated eukaryotic initiation factor 2 alpha (p-eIF2α); experiment: Immunofluorescence of p-eIF2α and YY1 in spinal cord of hexb−/− mice
Description: (§3) Protocol Two: Two groups of hexb^−/− mice at 40 d of age (n=4 per group) were set. […] Mice were perfused at 80 d, with formalin and processed for immunocytochemistry. Spine sections from treated and untreated mice were immunolabelled with multiple antibodies and evaluated.
(§4) Spinal cords from hexb^+/+ and hexb^−/− mice were harvested at 40, 60, 80, 100, and 120 d and embedded in paraffin as described above. Samples were rehydrated, first by washing slides with xylene then by washing them with a 1:1 solution of xylene and ethanol (EtOH) followed by washes in 100% EtOH, 95% EtOH, 70% EtOH, 70% EtOH/1% lithium carbonate solution, 70% EtOH, and finally, 50% EtOH. Next, antigen retrieval in a sodium citrate buffer (pH 6) was performed by microwaving the slides at 1 min intervals until boiling and then maintaining a boil for 5 minutes. The slides were then washed with tap water followed by a wash in glycine. […]
(§5) UPR activation was assessed through immunofluorescent staining of phosphorylated eukaryotic initiation factor 2 alpha (p-eIF2α) positive neurons and transcription factor YY1 in spinal cord sections from hexb^−/− mice that were treated or untreated with 4-PBA for (FIG. 15). […] Furthermore, the degree of apoptotic events occurring during disease pathogenesis with and without 4-PBA treatment was evaluated (FIG. 16). […]

cleaved caspase 7 = experiment: Immunofluorescence of cleaved caspase 7 and NeuN in spinal cord; settings: after 4-PBA treatment vs untreated
Description: as §3, §4, §5

[6] = test system: ChAT-positive motor neurons (AHNs); experiment: Immunofluorescence of ChAT and GFAP in anterior horn of spinal cord; settings: 4-PBA treated hexb−/− mice
Description: as §3
(§6) Spinal cords from hexb^+/+ and hexb^−/− mice were harvested at 40, 60, 80, 100, and 120 d and embedded in paraffin as described above. Samples were rehydrated, first by washing slides with xylene then by washing them with a 1:1 solution of xylene and ethanol (EtOH) followed by washes in 100% EtOH, 95% EtOH, 70% EtOH, 70% EtOH/1% lithium carbonate solution, 70% EtOH, and finally, 50% EtOH. Next, antigen retrieval in a sodium citrate buffer (pH 6) was performed by microwaving the slides at 1 min intervals until boiling and then maintaining a boil for 5 minutes. The slides were then washed with tap water followed by a wash in glycine. Following, the slides were then incubated with bloxall blocking solution for 10 minutes, followed by a 5 minute wash with PBS. Slides were then blocked with 2.5% horse serum for 20 minutes. Samples were then double labelled with a combination of anti-GFAP (1:100, Sigma; G9269), anti-ChAT (1:200, SIGMA), anti-Calretinin (1:200, Proteintech) and anti-NeuN (1:100, novus biologicals; N.BP1-92693). Slides were incubated with antibodies overnight at 4° C. Samples were washed with 1×PBS+0.05% TWEEN20 for 3×5 minutes, prior to application of the secondary antibody. Following, slides were double labeled with appropriate Alexa Fluor secondaries (Invitrogen, goat anti-rabbit 488: A11037, goat anti-mouse 594: A11029) and then again washed with 1×PBS+0.05% TWEEN20. Finally, the slides were mounted with ProLong Diamond antifade mountant reagent with DAPI (Invitrogen: P36966). Samples were imaged using Ziess Axiovert 200 scope equipped with an HBO 100 mercury lamp.
One of the hall marks of motor neurons within the spinal cord is the enzyme choline acetyltransferase (ChAT). […]

[7] = test system: Calretinin-positive interneurons; experiment: Immunofluorescence of Calretinin in spinal cord sections; settings: 4-PBA treated hexb−/− mice
Description: as §3
as §6, with “Samples were washed with 1×PBS+0.05% TWEEN20 for 3×5 minutes, prior to application of the secondary antibody. Following, slides were double labeled with appropriate Alexa Fluor secondaries (Invitrogen, goat anti-rabbit 488: A11037, goat anti-mouse 594: A11029) and then again washed with 1×PBS+0.05% TWEEN20. Finally, the slides were mounted with ProLong Diamond antifade mountant reagent with DAPI (Invitrogen: P36966). Samples were imaged using Ziess Axiovert 200 scope equipped with an HBO 100 mercury lamp.” left out

muscle fibers = experiment: Cross-sectional area of muscle fibers from muscles surrounding the spinal cord; settings: 4-PBA treated hexb−/− mice, 80 d
Description: as §3
Neuromuscular deficits are a highly prevalent consequence of Sandhoff disease. Therefore, cell body sectional area of the anterior horn neurons and the cross-sectional area of muscle fibers from the muscles surrounding the spinal cord of 80 d hexb^+/+ and hexb^−/− mice were evaluated (FIG. 19). Within hexb^+/+ mice, muscle fibres have an average area of ˜1000 um^2 while in contrast hexb^−/− mice show a 44% reduction in area with an average of −570 um^2. Such a drastic reduction early in disease pathology indicates mass muscle atrophy and neuronal loss has already occurred.

ATF6 = ATF6 expression after 4-PBA treatment

With `O=C(O)CCCc1ccccc1` [4-PBA, 4-phenylbutyric acid] the “survival / life span (in words)” value (hexb^−/− mice [1]; hexb−/− mice with 4-PBA vs without, Mantel-Cox P<0.001) was “beneficial impact on lifespan; also recorded: significant improvement in motor neuromuscular function and life span; also recorded: lived significantly longer”, the median survival (hexb^−/− mice [1]; hexb−/− mice, 4-PBA 4 mg/ml (0.4% w/v) in drinking water from 40 d of age, untreated 127 days) was 143 days and the “increase of median survival over untreated hexb−/− mice” value (hexb^−/− mice [1]; hexb−/− mice, 4-PBA 4 mg/ml in drinking water from 40 d of age) was 16 days. The wire hang time (hexb^−/− mice [2]) was “significant increase in wire hang time; also recorded: longer wire hang”, the “righting reflex / righting response time” value (hexb^−/− mice [3]; hexb−/− mice treated with 4-PBA vs untreated) was “significantly faster righting response; also recorded: significantly faster righting reflex” and the “delay in righting response time impairment” value (hexb^−/− mice [3]; treated vs untreated hexb−/− mice (untreated impaired by 17 weeks of age)) was 2 week. For the same compound, the body mass [4] was “restored hexb^−/− mice weights to wildtype levels”, the “nuclear localization of p-eIF2α” value ([5]; hexb−/− mice after 4-PBA treatment vs untreated) was “increase in the nuclear localization” and the “number of cytosolic p-eIF2α-positive neurons in spinal cord” value ([5]; hexb−/− mice treated with 4-PBA from 40 d, perfused at 80 d, vs untreated) was “significant reduction”. The “number of cCas7 positive neurons in spinal cord” value (cleaved caspase 7) was “significant reduction in the number of cCas7 positive neurons; also recorded: suppressed c-Cas7”, the C-boutons [6] was “more prevalent around AHNs motor neurons and throughout the anterior horn” and the “ChAT staining / ChAT-positive motor neurons in anterior horn” value [6] was “ChAT staining was normalized; also recorded: intense cytosolic ChAT staining within viable AHNs; also recorded: ChAT-positive motor neurons were maintained in anterior horn”. The “GFAP staining in anterior horn” value [6] was “intense GFAP staining”, the “Calretinin-positive interneurons within the anterior horn region” value [7] was “very little Calretinin-positive interneurons” and the “muscle fiber cross-sectional area vs hexb+/+ (in words)” value (muscle fibers) was “no significant difference; also recorded: maintained normal cross section area of muscle fibers”. For the same compound, the “muscle fiber cross-sectional area (average)” value (muscle fibers; hexb+/+ ~1000, untreated hexb−/− ~570) was 900 um^2 and 850 um^2 and the ATF6 expression (ATF6) was “upregulation of ATF6”.
